Source: PubChem BioAssay AID248 (DTP/NCI, 2004)
“And” between values parts separate entries of the source, which are not always exact repeats. Equal values may be shown once. Toxic doses and inconclusive results are not listed. No stated cut-off is given here; in the data, active means T/C of 150% or more; inactive means T/C below 125%.

Test system: L1210 leukemia ip in BDF1 mice, survival T/C
Assay: NCI In Vivo Anticancer Drug Screen. Data for tumor model L1210 Leukemia (intraperitoneal) in B6D2F1 (BDF1) mice
Settings: endpoint: mean survival time, higher = longer survival
Method in brief: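 Each compound was tested against a transplantable tumor grown in mice. The endpoint was survival, with treated animals benchmarked against vehicle controls as a simple ratio.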

[1] = dose: 100.0 mg/kg/injection, schedule: Q04DX003 (ip), vehicle: Klucel (hydroxypropylcellulose) (HPC)
[2] = dose: 200.0 mg/kg/injection, schedule: Q04DX003 (ip), vehicle: Klucel (hydroxypropylcellulose) (HPC)
[3] = dose: 400.0 mg/kg/injection, schedule: Q04DX003 (ip), vehicle: Klucel (hydroxypropylcellulose) (HPC)
[4] = dose: 100.0 mg/kg/injection, schedule: Q01DX009 (ip), vehicle: Klucel (hydroxypropylcellulose) (HPC)
[5] = dose: 200.0 mg/kg/injection, schedule: Q01DX009 (ip), vehicle: Klucel (hydroxypropylcellulose) (HPC)
[6] = dose: 400.0 mg/kg/injection, schedule: Q01DX009 (ip), vehicle: Klucel (hydroxypropylcellulose) (HPC)
[7] = dose: 200.0 mg/kg/injection, schedule: Q04DX003 (ip), vehicle: saline
[8] = dose: 400.0 mg/kg/injection, schedule: Q04DX003 (ip), vehicle: saline
[9] = dose: 100.0 mg/kg/injection, schedule: Q01DX001 (ip), vehicle: other
[10] = dose: 200.0 mg/kg/injection, schedule: Q01DX001 (ip), vehicle: other
[11] = dose: 400.0 mg/kg/injection, schedule: Q01DX001 (ip), vehicle: other
[12] = dose: 100.0 mg/kg/injection, schedule: Q04DX003 (ip), vehicle: saline with Tween-80
[13] = dose: 200.0 mg/kg/injection, schedule: Q04DX003 (ip), vehicle: saline with Tween-80
[14] = dose: 400.0 mg/kg/injection, schedule: Q04DX003 (ip), vehicle: saline with Tween-80

Measured: T/C

CC(C)(C(=O)O)c1ccccc1C(=O)c1ccccc1
inactive: [1] 97 % of control | [2] 101 % of control | [3] 105 % of control

CN1CCC(CC(=O)O)CC1
inactive: dose: 50.0 mg/kg/injection, schedule: Q01DX009 (ip), vehicle: saline 92 % of control | dose: 100.0 mg/kg/injection, schedule: Q01DX009 (ip), vehicle: saline 92 % of control | dose: 200.0 mg/kg/injection, schedule: Q01DX009 (ip), vehicle: saline 111 % of control

CC(=O)Nc1ccccc1C[P+](c1ccccc1)(c1ccccc1)c1ccccc1
inactive: dose: 25.0 mg/kg/injection, schedule: Q04DX003 (ip), vehicle: Klucel (hydroxypropylcellulose) (HPC) 97 % of control | dose: 50.0 mg/kg/injection, schedule: Q04DX003 (ip), vehicle: Klucel (hydroxypropylcellulose) (HPC) 98 % of control | [1] 100 % of control

COc1cc(NS(=O)(=O)c2ccccc2)ccc1C
inactive: [4] 92 % of control | [1] 97 % of control | [5] 91 % of control | [2] 90 % of control | [6] 91 % of control | [3] 87 % of control

Clc1nnc(Nc2ccccc2)c2ccccc12
inactive: [4] 96 % of control | [5] 93 % of control | [7] 93 % of control | [8] 91 % of control

C/C=C/C=C/COC(=O)CCCCCCC
inactive: dose: 25.0 mg/kg/injection, schedule: Q04DX002 (ip), vehicle: saline 107 % of control | dose: 50.0 mg/kg/injection, schedule: Q04DX002 (ip), vehicle: saline 103 % of control | dose: 100.0 mg/kg/injection, schedule: Q04DX002 (ip), vehicle: saline 103 % of control | dose: 200.0 mg/kg/injection, schedule: Q04DX002 (ip), vehicle: saline 110 % of control and 112 % of control | dose: 400.0 mg/kg/injection, schedule: Q04DX002 (ip), vehicle: saline 100 % of control

COC(=O)c1cccc2c1-c1ccccc1C2=O
inactive: [9] 92 % of control | [10] 88 % of control | [11] 97 % of control

O=S(=O)(NCCCl)c1ccc(Br)cc1
inactive: [9] 101 % of control | [12] 95 % of control | [10] 90 % of control | [13] 103 % of control | [11] 101 % of control | [14] 97 % of control

NC(=O)c1ccccc1NC(=O)Nc1ccccc1C(F)(F)F
inactive: [4] 98 % of control | [5] 98 % of control | [6] 100 % of control

CCN(CC)C(=O)Oc1cccc(NC(=O)OC)c1
inactive: dose: 100.0 mg/kg/injection, schedule: Q01DX001 (ip), vehicle: saline with Tween-80 94 % of control | dose: 200.0 mg/kg/injection, schedule: Q01DX001 (ip), vehicle: saline with Tween-80 94 % of control | dose: 400.0 mg/kg/injection, schedule: Q01DX001 (ip), vehicle: saline with Tween-80 100 % of control

COC1(OC)CCP(=S)(c2ccccc2)CC1C#N (centres undefined)
inactive: [12] 100 % of control | [13] 101 % of control | [14] 92 % of control

Cc1ccc(-c2ccc(C)s2)s1
inactive: dose: 50.0 mg/kg/injection, schedule: Q01DX009 (ip), vehicle: acetone 95 % of control | dose: 100.0 mg/kg/injection, schedule: Q01DX009 (ip), vehicle: acetone 90 % of control | dose: 100.0 mg/kg/injection, schedule: Q04DX003 (ip), vehicle: saline 96 % of control | dose: 200.0 mg/kg/injection, schedule: Q01DX009 (ip), vehicle: acetone 90 % of control | [7] 93 % of control | [8] 100 % of control

C1CC(CCN2CCOCC2)CCN1
inactive: dose: 100.0 mg/kg/injection, schedule: Q01DX001 (ip), vehicle: saline 98 % of control | dose: 200.0 mg/kg/injection, schedule: Q01DX001 (ip), vehicle: saline 107 % of control | dose: 400.0 mg/kg/injection, schedule: Q01DX001 (ip), vehicle: saline 105 % of control

Cc1noc(N)c1N
inactive: dose: 100.0 mg/kg/injection, schedule: Q01DX009 (ip), vehicle: water 105 % of control | dose: 100.0 mg/kg/injection, schedule: Q04DX003 (ip), vehicle: water 93 % of control | dose: 200.0 mg/kg/injection, schedule: Q01DX009 (ip), vehicle: water 115 % of control | dose: 200.0 mg/kg/injection, schedule: Q04DX003 (ip), vehicle: water 96 % of control | dose: 400.0 mg/kg/injection, schedule: Q01DX009 (ip), vehicle: water 121 % of control | dose: 400.0 mg/kg/injection, schedule: Q04DX003 (ip), vehicle: water 102 % of control

CN1CSC(=S)N(Cc2ccccc2)C1
inactive: dose: 100.0 mg/kg/injection, schedule: Q04DX002 (ip), vehicle: saline with Tween-80 94 % of control | dose: 200.0 mg/kg/injection, schedule: Q04DX002 (ip), vehicle: saline with Tween-80 97 % of control | dose: 400.0 mg/kg/injection, schedule: Q04DX002 (ip), vehicle: saline with Tween-80 105 % of control

CCOC(=O)CCC(I)C(=O)OCC (centres undefined)
inactive: dose: 3.75 mg/kg/injection, schedule: Q01DX010 (ip), vehicle: saline 98 % of control | dose: 15.0 mg/kg/injection, schedule: Q01DX010 (ip), vehicle: saline 90 % of control

Cc1cc(C)c(NC(=O)Nc2ccccc2)c(C)c1
inactive: [4] 96 % of control | [1] 98 % of control | [5] 104 % of control | [2] 98 % of control | [6] 95 % of control | [3] 101 % of control

O=C1CC2(CCN(Cc3ccccc3)CC2)C(=O)N1Nc1ccccc1
inactive: dose: 100.0 mg/kg/injection, schedule: Q01DX001 (ip), vehicle: Klucel (hydroxypropylcellulose) (HPC) 105 % of control | dose: 200.0 mg/kg/injection, schedule: Q01DX001 (ip), vehicle: Klucel (hydroxypropylcellulose) (HPC) 100 % of control | dose: 400.0 mg/kg/injection, schedule: Q01DX001 (ip), vehicle: Klucel (hydroxypropylcellulose) (HPC) 100 % of control

Cn1c(=O)c2c(ncn2CCOC(=O)C(C)(C)Oc2ccc(Cl)cc2)n(C)c1=O
inactive: [4] 92 % of control | [1] 90 % of control | [5] 105 % of control | [2] 96 % of control | [3] 93 % of control

O=Cc1nccn1Cc1ccccc1
inactive: dose: 25.0 mg/kg/injection, schedule: Q01DX009 (ip), vehicle: saline with Tween-80 93 % of control | dose: 50.0 mg/kg/injection, schedule: Q01DX009 (ip), vehicle: saline with Tween-80 98 % of control | dose: 100.0 mg/kg/injection, schedule: Q01DX009 (ip), vehicle: saline with Tween-80 100 % of control

CC(=O)Nc1nnc(SC(C)=O)s1
inactive: [4] 95 % of control and 90 % of control | [5] 95 % of control | [6] 93 % of control and 94 % of control

CCCN1C(c2ccccc2)=CN(Cc2ccccc2)C=C1c1ccccc1
inactive: dose: 100.0 mg/kg/injection, schedule: Q04DX002 (ip), vehicle: Klucel (hydroxypropylcellulose) (HPC) 95 % of control | dose: 200.0 mg/kg/injection, schedule: Q04DX002 (ip), vehicle: Klucel (hydroxypropylcellulose) (HPC) 103 % of control | dose: 400.0 mg/kg/injection, schedule: Q04DX002 (ip), vehicle: Klucel (hydroxypropylcellulose) (HPC) 106 % of control

Cc1ccc([N+](=O)[O-])cc1NC(=O)Nc1cccc(F)c1
inactive: dose: 6.25 mg/kg/injection, schedule: Q01DX009 (ip), vehicle: Klucel (hydroxypropylcellulose) (HPC) 93 % of control | dose: 12.5 mg/kg/injection, schedule: Q01DX009 (ip), vehicle: Klucel (hydroxypropylcellulose) (HPC) 87 % of control | dose: 25.0 mg/kg/injection, schedule: Q01DX009 (ip), vehicle: Klucel (hydroxypropylcellulose) (HPC) 92 % of control | [6] 86 % of control
